Assay results reported in ChEMBL document CHEMBL1201862, “PubChem BioAssay data set” (2004).
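Protocol summary: plate cells (96-well), add compound at 5 concentrations, incubate 48 h, interpolate endpoints linearly. At the GI50, growth is halved.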 The source made the active and inactive calls. Rule as the data show it: active = GI50 up to about 1.1 µM and inactive = higher.

Assays:
Assay in all cases: DTP human tumour cell line panel, 48 h
ACHN = tested on: ACHN
HL-60 = tested on: HL-60
A498 = tested on: A498
MDA-MB-435 = tested on: MDA-MB-435
NCI-H226 = tested on: NCI-H226
MDA-MB-231 = tested on: MDA-MB-231
NCI-H23 = tested on: NCI-H23
U-251 = tested on: U-251
MDA-N = tested on: MDA-N
LOX IMVI = tested on: LOX IMVI
EKVX = tested on: EKVX
NCI-H522 = tested on: NCI-H522
OVCAR-3 = tested on: OVCAR-3
OVCAR-5 = tested on: OVCAR-5
NCI-H460 = tested on: NCI-H460
SNB-75 = tested on: SNB-75
TK-10 = tested on: TK-10
SN12C = tested on: SN12C
SF-539 = tested on: SF-539
OVCAR-4 = tested on: OVCAR-4

Measured: GI50

C=C(C)[C@H]1C=C[C@@H](OC(=O)c2cccnc2)[C@@]23CO[C@@](C)([C@H](OC(=O)c4cccnc4)[C@@]4(OC(C)=O)C[C@H](C)[C@H](OCCC)[C@@H]4[C@H]2OC(C)=O)[C@H]13
inactive: ACHN > 15 µM | HL-60 3.35 µM | A498 > 15 µM | MDA-MB-435 9.68 µM | NCI-H226 > 15 µM | MDA-MB-231 > 15 µM | NCI-H23 > 15 µM | U-251 > 15 µM | MDA-N 10.7 µM | LOX IMVI > 15 µM | EKVX > 15 µM | NCI-H522 > 15 µM | OVCAR-3 > 15 µM | OVCAR-5 > 15 µM | NCI-H460 4.94 µM | SNB-75 3.82 µM | TK-10 > 15 µM | SN12C > 15 µM | SF-539 > 15 µM | OVCAR-4 10.3 µM

CC(C)(C)c1cc(C(=O)/C=C/c2ccc3c(c2)OCO3)cc(C(C)(C)C)c1O
inactive: ACHN 8.55 µM | HL-60 3.07 µM | A498 10.3 µM | MDA-MB-435 2.26 µM | NCI-H226 15.2 µM | MDA-MB-231 8.11 µM | NCI-H23 9.82 µM | U-251 6.68 µM | MDA-N 1.98 µM | LOX IMVI 8.32 µM | EKVX 21.9 µM | NCI-H522 11.9 µM | OVCAR-3 4.53 µM | OVCAR-5 16.3 µM | NCI-H460 4.8 µM | SNB-75 3.2 µM | TK-10 9.91 µM | SN12C 10.1 µM | SF-539 6.44 µM | OVCAR-4 6.95 µM

COC(=O)c1ccc(NCc2cc(O)c3ccccc3c2O)cc1
inactive: ACHN 10.8 µM | HL-60 3.3 µM | A498 19.8 µM | MDA-MB-435 2.11 µM | NCI-H226 16.4 µM | MDA-MB-231 2.17 µM | NCI-H23 6.65 µM | U-251 16.7 µM | MDA-N 2.15 µM | LOX IMVI 3.48 µM | EKVX 18.3 µM | NCI-H522 16.1 µM | OVCAR-3 14.9 µM | OVCAR-5 21.6 µM | NCI-H460 7.31 µM | SNB-75 22.5 µM | TK-10 24.4 µM | SN12C 7.13 µM | SF-539 15.3 µM | OVCAR-4 12.4 µM

C=C(C)[C@@H]1CC[C@]2(C(=O)O)CC[C@]3(C)[C@H](CC[C@@H]4[C@@]5(C)CC[C@H](O)C(C)(C)[C@@H]5CC[C@]43C)[C@@H]12 [BETULINIC ACID]
inactive: ACHN 8.28 µM | HL-60 2.97 µM | A498 6.08 µM | MDA-MB-435 13.7 µM | NCI-H226 13.2 µM | MDA-MB-231 3.91 µM | NCI-H23 2.58 µM | U-251 5.53 µM | MDA-N 16.7 µM | LOX IMVI 11.3 µM | EKVX 16.1 µM | NCI-H522 3.21 µM | OVCAR-3 2.61 µM | OVCAR-5 12.4 µM | NCI-H460 7.28 µM | SNB-75 8.87 µM | TK-10 14.8 µM | SN12C 10.8 µM | SF-539 4.03 µM | OVCAR-4 5.83 µM
